This note sets out measurements from ChEMBL document CHEMBL1130487, “Development of a positron emission tomography radiopharmaceutical for imaging thymidine kinase gene expression: Synthesis and in vitro evaluation of 9-{3-[18F] Fluoro-1-hydroxy-2-propoxymethyl guanine” (1997).

Structures are written as SMILES.

Usually inhibition stands for the relative decrease from the control value, in per cent. A higher inhibition goes with strong suppression.

The species entered for assay [1] is Rattus norvegicus. In words: Inhibition of cell growth by compound at a concentration of 100 uM in 9Ltk+ cells; Completely stopped the process. Format: functional, cell-based.
A short description of assay [2]: Inhibition of cell growth by compound at a concentration of 10 uM in 9Ltk+ cells. Type of assay: functional. To be noted: Rattus norvegicus.
The species named for assay [3] is Rattus norvegicus. Description: Anti proliferation activity determined; Weak effect. Format: functional.
The species named for assay [4] is Rattus norvegicus. In words: Inhibition of cell growth by compound at a concentration of 10 uM in 9Ltk+ cells; […]. Type of assay: functional, cell-based.

In the case of `Nc1nc2c(ncn2COCCO)c(=O)[nH]1`, in assay [1], the inhibition result is “Completely stopped the process”.
Consider `Nc1nc(O)c2ncn(COC(CO)CF)c2n1` (centres undefined), for which the inhibition at 10 µM in assay [2] worked out at 50%.
In the case of `Nc1nc2c(ncn2COC(CO)CO)c(=O)[nH]1`, the Activity entry in assay [3] is “Weak effect”. Also, the inhibition result in assay [4] is recorded as “Completely stopped the process”.
